Measurements taken from patent publication US6146868A, “Glucuronoxylomannan (GXM)-O-acetylhydrolase of cryptococcus neoformans and uses thereof” (Research Development Foundation, priority 1999, dated 2000).

Experiments:
[1] = tested on: native (wild-type) glucuronoxylomannan (GXM)-O-acetylhydrolase purified from mixed unknown bacterial culture; assay: PNP-acetate plate assay, kinetics (Km), native enzyme; format: biochemical, mixed unknown bacterial culture from sewage; settings: pH 7.2, A405 kinetic reading, hyperbolic regression, read-out: Km for PNP-acetate (KPNPA)
Excerpt: Purification, LysC Degradation and Amino Acid Sequencing of Wild-Type Enzyme: The native GXM O-acetylhydrolase was purified from a mixed unknown bacterial culture that was collected from sewage. The purification was achieved by the following steps: cholate extraction, ammonium sulfate precipitation, molecular sieve chromatography, and ion exchange on a mono Q column followed by a mono S column.
PNP-Carboxyl Ester Assay: This assay determines specificity of enzymatic activity for five different PNP-fatty acid esters: PNP-acetate (2 carbon), PNP-propionate (3 carbon), PNP-butyrate (4 carbon), PNP-laurate (12 carbon), and PNP-palmitate (16 carbon). The assay was set up in a 96-well plate and read at 405 n m on a BIO-TEK Ceres 900 plate reader. Each reaction consisted of: 200 μl PBS buffer, pH 7.2; 50 μl PNP-ester solution, 0.77 mM; and 50 μl of enzyme (containing various levels of enzyme) added just prior to reading at 405 nm. Non-enzymic hydrolysis was measured in a solution that consisted of 200 μl PBS buffer, pH 7.2; 50 μl PNP-ester solution, 0.77 mM; and 50 μl PBS, pH 7.2, the buffer replacing the enzyme. Standard curves were obtained by measurement of the A405 of solutions of known amounts of para-nitrophenol. This assay was read within 30 seconds in a single point manner as the enzyme works rapidly on this substrate. […]

[2] = tested on: recombinant glucuronoxylomannan (GXM)-O-acetylhydrolase, SEQ ID No. 31 (His-tagged short clone expressed in E. coli); assay: PNP-acetate plate assay, kinetics (Km), recombinant enzyme; format: biochemical, mixed unknown bacterial culture from sewage; settings: pH 7.2, A405 kinetic reading, hyperbolic regression, read-out: Km for PNP-acetate (KPNPA)
Description: PNP-Carboxyl Ester Assay: This assay determines specificity of enzymatic activity for five different PNP-fatty acid esters: PNP-acetate (2 carbon), PNP-propionate (3 carbon), PNP-butyrate (4 carbon), PNP-laurate (12 carbon), and PNP-palmitate (16 carbon). The assay was set up in a 96-well plate and read at 405 n m on a BIO-TEK Ceres 900 plate reader. Each reaction consisted of: 200 μl PBS buffer, pH 7.2; 50 μl PNP-ester solution, 0.77 mM; and 50 μl of enzyme (containing various levels of enzyme) added just prior to reading at 405 nm. Non-enzymic hydrolysis was measured in a solution that consisted of 200 μl PBS buffer, pH 7.2; 50 μl PNP-ester solution, 0.77 mM; and 50 μl PBS, pH 7.2, the buffer replacing the enzyme. […] This assay was read within 30 seconds in a single point manner as the enzyme works rapidly on this substrate.
PNP-Acetate Assay: This assay was routinely used to determine enzymatic activity in samples of recombinant enzyme at the various steps in its expression and purification as described above, but with the PNP-acetate substrate only. This reaction was measured at pH=6.2 to 8.2. […]
Kinetics: Kinetics of the enzyme were investigated through use of the PNP-acetate plate assay and the competition assay described above. The plates were read on the BIO-TEK Ceres 900 plate reader at 405 nm with a kinetic protocol that took readings every 20 seconds for 3 minutes. […]

For `CC(=O)Oc1ccc([N+](=O)[O-])cc1` [PNP-acetate], which Km [1] is on record?
Its Km is 1260 µM.

What about the Km [2] of the same compound?
Its Km is 1340 µM.
